# Laboratory results: US20250213592A1, “PHARMACEUTICAL COMPOSITION COMPRISING CURCUMIN AND GINSENOSIDE, AND FORMULATION THEREOF” (CORESTEMCHEMON INC., priority 2022, published 2025)
# Key:
# SNU-C1 [1] = assay: Cell mobility (transwell) of irradiated SNU-C1 cells; type: cell-based, human; conditions: SNU-C1, 10 Gy, 10 μM, 24 hours
# Method: (§1) Cell mobility was measured using a 24 mm transwell with […]. After stabilizing the cells irradiated with 10 Gy of radiation for 24 hours, the cells were suspended in a medium and seeded in the upper chamber of the transwell, and the lower chamber was filled with a medium containing 10% fetal bovine serum (FBS) and 10 μM butyric acid (BA), ginsenosides Rh1, Rh2, Ro, Rb1, curcumin (CU), and sucralfate (SCF) either alone or in combination, and culturing was performed. After 24 hours of culture, the downside of the transwell was stained with crystal violet dye, and the stained cells were counted by observing them with an inverted microscope.
# HUVEC = assay: Vascular endothelial cell tube formation after irradiation; type: cell-based, human; conditions: irradiated HUVEC, 10 μM, alone or in combination
# Method: After irradiating human umbilical endothelial cells (HUVEC) with 10 Gy of radiation, the cells were seeded on a matrigel-coated u-slide, and were treated with 10 μM of curcumin (CU), butyric acid (BA), sucralfate (SCF), ginsenosides Rh1, Rh2, Rb1, or Ro either alone or in combination.
# It was investigated whether a treatment with curcumin (CU), butyric acid (BA), sucralfate (SCF), and ginsenoside Rh1 (Rh1) alone or in combination restored the function of HUVEC cells damaged by radiation.
# [2] = test system: human dermal fibroblasts (HDF); assay: Cell mobility (transwell) of irradiated human dermal fibroblasts; type: cell-based; conditions: 10 μM, alone or in combination
# Method: as §1
# HCT116 [3] = assay: Cell viability (Cell Counting Kit-8) of irradiated HCT116 cells; type: cell-based, human; conditions: HCT116, 10 Gy, 48 hours
# Method: (§2) Human colon cancer cell lines (HCT116 and SNU-C1), a human dermal fibroblast cell line and a human keratinocyte cell line (HaCaT) were cultured in Dulbecco's modified eagles medium-high glucose (DMEM) containing 10% fetal bovine serum (FBS), 100 units/mL penicillin, and 100 μg/mL streptomycin. A Human umbilical vascular endothelial cell line (HUVEC) was cultured in a vascular cell basal medium (ATCC) containing Endothelial cell growth kit-VEGF (ATCC). All of the above cells were cultured in a 5% CO2 cell incubator at 37° C.
# (§3) Cell viability test was performed using Cell Counting Kit-8. HCT116 and SNU-C1 cell lines, which are colon cancer cells, were seeded on 60 mm culture dishes and cultured, and then irradiated with 10 Gy of radiation. The cells were harvested, seeded on 96-well culture plates, and incubated, and then the cells were treated with butyric acid (BA), ginsenosides Rh1, Rh2, Ro, Rb1, and curcumin (CU) at concentrations of 5, 10, or 50 μM, respectively. After 48 hours, cell viability was analyzed using Cell Counting Kit-8 and a microplate reader.
# (§4) In order to investigate the effects of curcumin (CU), butyric acid (BA), and ginsenoside on the decreased cell viability due to irradiation, HCT116 and SNU-C1 cells were treated with curcumin, butyric acid, ginsenoside Rh1, Rh2, Ro, or Rb1 at concentrations of 5, 10, and 50 μM, respectively, and the viability of each cell was measured (FIGS. 1 and 2).
# HCT116 [4] = assay: Cell mobility (transwell) of irradiated HCT116 cells; type: cell-based, human; conditions: HCT116, 10 Gy, 10 μM, 24 hours
# Method: as §1
# The experiment was conducted using the same manner as Experimental Example 3, except that the effective agents for treatment were a combination of curcumin, butyric acid, sucralfate, and ginsenoside.
# SNU-C1 [5] = assay: Cell viability (Cell Counting Kit-8) of irradiated SNU-C1 cells; type: cell-based, human; conditions: SNU-C1, 10 Gy, 48 hours
# Method: as §2, §3, §4
# skin of irradiated mice = conditions: cited from earlier work
# [6] = test system: intestinal epithelial cells; conditions: cited from earlier work
# [7] = test system: radiation proctitis model mouse; assay: Radiation proctitis model mouse: pathological morphology of colon and rectal tissue (H&E); type: in vivo; conditions: 27 Gy, intrarectal, 14 days, vs irradiated group (IR)
# Method: by administration of combination drug to proctitis model mouse C57BL/6 mice (5 weeks old, female) were irradiated with 27 Gy of radiation, and then divided into test groups as shown in Table 4 and FIG. 13. From the next day, samples prepared at concentrations as shown in Table 5 and FIG. 14 (formulated using the method of Example 1) were administered intrarectally at 2-3 day intervals for a total of 6 times (FIG. 16).
# The efficacy of the treated samples was confirmed 14 days after the final radiation. In this case, except for the non-irradiated group (n=5), all test treatment groups were conducted with 7 mice per group. A flexible plastic tube was inserted into the rectum for administration, and a formulation containing approximately 50 μl of the compound was administered per mouse at a time.
# In addition, pathological morphological analysis of the intestinal tissue was performed by observing the morphology of each treatment group through a microscope after performing H&E staining.
# Specifically, the extracted organs were fixed in 10% formalin and paraffin blocks were created (STP120 Spin tissue Processor, Myr). Thereafter, sections were mounted on slides using a microtome (Finesse ME Microtome, Thermo Shandon), dried, deparaffinized and hydrated to create tissue slides. […]
# [8] = 5 μM or 10 μM, vs irradiated group
compound,measurement,setting,value
"CC(C)=CCC[C@](C)(O[C@@H]1O[C@H](CO[C@@H]2O[C@H](CO)[C@@H](O)[C@H](O)[C@H]2O)[C@@H](O)[C@H](O)[C@H]1O)[C@H]1CC[C@]2(C)[C@@H]1[C@H](O)C[C@@H]1[C@@]3(C)CC[C@H](O[C@@H]4O[C@H](CO)[C@@H](O)[C@H](O)[C@H]4O[C@@H]4O[C@H](CO)[C@@H](O)[C@H](O)[C@H]4O)C(C)(C)[C@@H]3CC[C@]12C [Rb1, ginsenoside Rb1]",cell mobility rate compared to the irradiated group,SNU-C1 [1],significantly increased
"CC(C)=CCC[C@](C)(O)[C@H]1CC[C@]2(C)C1[C@H](O)C[C@@H]1[C@@]3(C)CC[C@H](O)C(C)(C)[C@@H]3[C@@H](O[C@@H]3O[C@H](CO)[C@@H](O)[C@H](O)[C@H]3O)C[C@]12C (stereo partly shown) [Rh1, ginsenoside Rh1]","Tube length (%), average value",HUVEC,15%
same,"Mobility rate (%), average value",[2],99%
"CC(C)=CCC[C@](C)(O)[C@H]1CC[C@]2(C)[C@@H]1[C@H](O)C[C@@H]1[C@@]3(C)CC[C@H](O[C@@H]4O[C@H](CO)[C@@H](O)[C@H](O)[C@H]4O)C(C)(C)[C@@H]3CC[C@]12C [Rh2, ginsenoside Rh2]",cell viability compared to the irradiated group,HCT116 [3]; 50 μM,lower cell viabilities than the irradiated group
same,cell mobility rate compared to the irradiated group,HCT116 [4],highest cell mobility recovery rate
same,cell viability compared to the irradiated group,SNU-C1 [5]; 50 μM,lower cell viabilities than the irradiated group
"CC1(C)CC[C@]2(C(=O)O[C@@H]3O[C@H](CO)[C@@H](O)[C@H](O)[C@H]3O)CC[C@]3(C)C(=CC[C@@H]4[C@@]5(C)CC[C@H](O[C@@H]6O[C@H](C(=O)O)[C@@H](O)[C@H](O)[C@H]6O[C@@H]6O[C@H](CO)[C@@H](O)[C@H](O)[C@H]6O)C(C)(C)[C@@H]5CC[C@]43C)[C@@H]2C1 [Ro, ginsenoside Ro]",cell viability compared to the irradiated group,HCT116 [3]; 5 μM,lower cell viabilities than the irradiated group
same,cell viability compared to the irradiated group,SNU-C1 [5]; 5 μM,lower cell viabilities than the irradiated group
"CCCC(=O)O [butyric acid, Butyric acid]","Tube length (%), average value",HUVEC,14%
same,cell mobility rate compared to the irradiated group,HCT116 [4],double increase
same,"Mobility rate (%), average value",[2],76%
COc1cc(/C=C/C(=O)CC(=O)/C=C/c2ccc(O)c(OC)c2)ccc1O [curcumin],cell mobility rate compared to the irradiated group,SNU-C1 [1],significantly increased
same,cell viability decreased by irradiation,HCT116 [3]; [8],significantly increased
same,cell viability compared to the irradiated group,HCT116 [3]; 50 μM,lower cell viabilities than the irradiated group
same,"Tube length (%), average value",HUVEC,15%
same,cell mobility rate compared to the irradiated group,HCT116 [4],double increase
same,"Mobility rate (%), average value",[2],130%
same,skin damage,skin of irradiated mice; irradiated mice,restoring skin damage
same,expression of inflammatory cytokines and fibrogenic cytokines,skin of irradiated mice; skin of irradiated mice,reducing the expression
same,cell viability decreased by irradiation,SNU-C1 [5]; [8],significantly increased
same,cell viability compared to the irradiated group,SNU-C1 [5]; 50 μM,lower cell viabilities than the irradiated group
CC(C)=CCC[C@](C)(O[C@@H]1O[C@H](CO)[C@@H](O)[C@H](O)[C@H]1O)[C@H]1CC[C@]2(C)[C@@H]1[C@H](O)C[C@@H]1[C@@]3(C)CC[C@H](O[C@@H]4O[C@H](CO)[C@@H](O)[C@H](O)[C@H]4O[C@@H]4O[C@H](CO)[C@@H](O)[C@H](O)[C@H]4O)C(C)(C)[C@@H]3CC[C@]12C [ginsenoside Rd],apoptosis induced by irradiation,[6],inhibit apoptosis
Sucralfate [reference compound],"Tube length (%), average value",HUVEC,14%
same,"Mobility rate (%), average value",[2],91%
same,epithelium loss and crypt damage induced by irradiation,[7],recovered in all sample treatment groups except the sucralfate treatment group
